Measurements published in paper PMC4689619 (Organic & biomolecular chemistry, 2016).
Where two headings read alike, the source gives them in different places.

Key:
[1] = target: oncogenic mutant K-Ras (mGFP-K-Ras G12V) (Homo sapiens, UniProt P01116, G12V); assay type: cell-based, canine; details: MDCK cells stably expressing mGFP-KRasG12V and mCherry-CAAX, 48 h; for IC50: read-out: IC50 (concentration needed for 50% PM mislocalisation)
SW620 cells = test: resazurin cell viability assay, SW620; assay type: cell-based, human
SW620 Ad300 cells = test: cells; assay type: cell-based, human
P-glycoprotein (P-gp) = P-glycoprotein (P-gp) (Homo sapiens, UniProt P08183); test: calcein AM flow cytometry assay in P-gp over-expressing SW620 Ad300 cells; details: 20 μM
[2] = read-out: SW620 IC50, colon cancer cell line SW620, resazurin
[3] = read-out: SW620 Ad300 IC50, P-gp over-expressing SW620 Ad300, resazurin

P-glycoprotein (P-gp), sequence (P08183 whole entry): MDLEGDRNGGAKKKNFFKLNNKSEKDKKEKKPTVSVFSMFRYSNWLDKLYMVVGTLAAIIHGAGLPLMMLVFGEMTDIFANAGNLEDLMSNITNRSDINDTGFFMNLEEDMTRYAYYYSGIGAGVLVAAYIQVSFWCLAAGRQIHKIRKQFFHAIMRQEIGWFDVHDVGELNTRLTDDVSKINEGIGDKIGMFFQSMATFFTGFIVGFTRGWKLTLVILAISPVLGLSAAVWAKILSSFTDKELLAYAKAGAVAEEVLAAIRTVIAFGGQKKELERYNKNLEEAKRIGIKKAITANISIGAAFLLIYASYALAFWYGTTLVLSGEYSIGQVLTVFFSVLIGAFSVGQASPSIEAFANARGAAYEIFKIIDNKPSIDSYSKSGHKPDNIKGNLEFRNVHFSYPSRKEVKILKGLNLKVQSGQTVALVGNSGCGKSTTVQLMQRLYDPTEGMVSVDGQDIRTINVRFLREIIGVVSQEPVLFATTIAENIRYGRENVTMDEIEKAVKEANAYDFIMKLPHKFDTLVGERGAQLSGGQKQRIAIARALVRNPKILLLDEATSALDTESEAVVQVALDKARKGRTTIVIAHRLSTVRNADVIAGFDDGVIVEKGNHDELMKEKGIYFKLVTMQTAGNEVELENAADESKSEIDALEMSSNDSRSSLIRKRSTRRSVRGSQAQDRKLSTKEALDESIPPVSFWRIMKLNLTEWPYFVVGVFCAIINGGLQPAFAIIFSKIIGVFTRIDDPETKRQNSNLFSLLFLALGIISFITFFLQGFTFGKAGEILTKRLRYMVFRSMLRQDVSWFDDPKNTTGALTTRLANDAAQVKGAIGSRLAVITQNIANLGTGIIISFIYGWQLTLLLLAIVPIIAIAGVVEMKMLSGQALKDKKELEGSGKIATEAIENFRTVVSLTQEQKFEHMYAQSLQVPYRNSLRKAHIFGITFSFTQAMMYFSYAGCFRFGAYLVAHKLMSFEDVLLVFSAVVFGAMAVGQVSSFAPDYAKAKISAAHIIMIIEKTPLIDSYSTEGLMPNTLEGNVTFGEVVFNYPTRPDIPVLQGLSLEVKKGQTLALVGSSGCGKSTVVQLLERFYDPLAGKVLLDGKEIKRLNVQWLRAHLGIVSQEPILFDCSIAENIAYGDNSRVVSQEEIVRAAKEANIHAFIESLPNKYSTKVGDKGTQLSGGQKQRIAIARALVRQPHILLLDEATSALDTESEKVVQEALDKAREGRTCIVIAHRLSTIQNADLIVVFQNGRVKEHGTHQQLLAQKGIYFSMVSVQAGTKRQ

Row | Compound | Emax (highest Manders coefficient, maximum extent of K-Ras PM mislocalisation) [1] | IC50 [1] | IC50 (SW620 cells; [2]) | FR (fold resistance, ratio IC50 SW620Ad300 / IC50 SW620) (SW620 Ad300 cells) | IC50 (SW620 Ad300 cells; [3]) | FAR (fluorescence arbitrary ratio), calcein fluorescence intensity vs PBS (P-glycoprotein (P-gp)) | FR (fold resistance) with co-administration of verapamil (SW620 Ad300 cells; co-administration of P-gp inhibitor verapamil) | IC50 (SW620 cells; Homo sapiens, SW-620, read-out: SW620 IC50) | IC50 (SW620 Ad300 cells; Homo sapiens, SW620/AD300, read-out: SW620 Ad300 IC50)
1 | CC[C@H]1/C=C/C=C/C[C@@H](C)[C@H](O)[C@@](C)(O)C(=O)[C@@H](C)[C@H](O)[C@@H](C)C(=O)[C@@H](C)[C@H](O)[C@@H](C)/C=C/C(=O)O[C@@H]2[C@H](C)[C@H](CC1)O[C@@]1(O[C@@H](C[C@@H](C)O)[C@@H](C)CC1=O)[C@]2(C)O [compound 5, oligomycin E] | 0.73 ± 0.06 | 0.0049 ± 0.00064 µM | 7.1 ± 0.4 µM | 0.56 | 4 ± 0.8 µM | 48.2 | – | – | –
2 | CC[C@H]1/C=C/C=C/C[C@@H](CO)[C@H](O)[C@@](C)(O)C(=O)[C@@H](C)[C@H](O)[C@@H](C)C(=O)[C@@H](C)[C@H](O)[C@@H](C)/C=C/C(=O)O[C@@H]2[C@H](C)[C@H](CC1)O[C@@]1(O[C@@H](C[C@@H](C)O)[C@@H](C)CC1=O)[C@H]2C [compound 8, 40-hydroxy-oligomycin B] | 0.73 ± 0.05 | 0.00591 ± 0.00162 µM | 13.6 ± 0.4 µM | 1.2 | 16.4 ± 1.5 µM | – | – | – | –
3 | CC[C@H]1/C=C/C=C/C[C@@H](C)[C@H](O)[C@H](C)C(=O)[C@@H](C)[C@H](O)[C@@H](C)C(=O)[C@@H](C)[C@H](O)[C@@H](C)/C=C/C(=O)O[C@@H]2[C@H](C)[C@H](C[C@H]1O)O[C@]1(CC[C@H](C)[C@H](C[C@@H](C)O)O1)[C@H]2C [compound 7, 21-hydroxy-oligomycin C] | 0.68 ± 0.01 | 0.0141 ± 0.00024 µM | 5.7 ± 0.9 µM | 0.54 | 3.1 ± 0.2 µM | – | – | – | –
4 | CC[C@H]1/C=C/C=C/C[C@@H](C)[C@H](O)[C@@](C)(O)C(=O)[C@@H](C)[C@H](O)[C@@H](C)C(=O)[C@@H](C)[C@H](O)[C@@H](C)/C=C/C(=O)O[C@H]2C[C@@]3(CC[C@H](C)[C@H](C[C@@H](C)O)O3)O[C@@H](CC1)[C@H]2C [compound 4, oligomycin D] | 0.72 ± 0.01 | 0.00349 ± 8e-05 µM | 36 ± 2.3 µM | 0.35 | 12.9 ± 1 µM | – | – | – | –
5 | CC[C@H]1/C=C/C=C/C[C@@H](C)[C@H](O)[C@@](C)(O)C(=O)[C@@H](C)[C@H](O)[C@@H](C)C(=O)[C@@H](C)[C@H](O)[C@@H](C)/C=C/C(=O)O[C@@H]2[C@H](C)[C@H](C[C@H]1O)O[C@]1(CC[C@H](C)[C@H](C[C@@H](C)O)O1)[C@H]2C [compound 6, 21-hydroxy-oligomycin A] | 0.76 ± 0.04 | 0.00482 ± 0.0007 µM | 14.4 ± 0.6 µM | 0.82 | 11.8 ± 3.1 µM | – | – | – | –
6 | oligomycin A [compound 1] | 0.75 ± 0.02 | – | 14.6 ± 2.5 µM | 0.27 | 4 ± 1.1 µM | – | – | – | –
7 | COc1cccc2c1C(=O)c1c(O)c3c(c(O)c1C2=O)C[C@@](O)(C(=O)CO)C[C@@H]3O[C@H]1C[C@H](N)[C@H](O)[C@H](C)O1 [doxorubicin, reference compound] | – | – | – | 22 | – | – | 2.4 | – | –
8 | CC[C@H]1/C=C/C=C/C[C@@H](C)[C@H](O)[C@@](C)(O)C(=O)[C@@H](C)[C@H](O)[C@@H](C)C(=O)[C@@H](C)[C@H](O)[C@@H](C)/C=C/C(=O)O[C@@H]2[C@H](C)[C@H](CC1)O[C@@]1(O[C@@H](C[C@@H](C)O)[C@@H](C)CC1=O)[C@H]2C [compound 2, oligomycin B] | 0.67 ± 0.02 | 0.00351 ± 0.00016 µM | 17 ± 0.6 µM | 0.76 | 12.9 ± 1.3 µM | – | – | – | –
9 | CC[C@@H]1C=CC=CC[C@H](C)[C@@H](O)[C@@H](C)C(=O)[C@H](C)[C@@H](O)[C@H](C)C(=O)[C@H](C)[C@@H](O)[C@H](C)C=CC(=O)O[C@H]2[C@@H](C)[C@@H](CC1)O[C@@]1(CC[C@@H](C)[C@@H](C[C@H](C)O)O1)[C@@H]2C [compound 3, oligomycin C] | 0.72 ± 0.03 | – | – | 1.1 | – | – | – | 19.8 ± 1.2 µM | 22.5 ± 3.8 µM
